The values that follow come from US20190225670A1, “COMPOUNDS AND METHODS FOR ACTIVATING TIE2 SIGNALING” (ASCLEPIX THERAPEUTICS, LLC, priority 2016, published 2019).

One assay concerns phospho-Tie2 (Y992). The assay can be described thus: Immunofluorescence of phospho-Tie2 in MEC monolayers. It counts as cell-based, human. Particulars: 200 ng/ml Ang2 15 min and AXT107. The method, then:
As such, subsequent experiments evaluate the effects of AXT107 at cell-cell junctions in MEC monolayers using immunofluorescence microscopy rather than at the EC-ECM interface.
Glass-bottomed, 96-well plates with half well size were coated with 10 μg/ml FN1 for two hours at 37° C. The FN1 solution was then removed by aspiration and the plate seeded with 4×10^3 MECs in EGM-2MV media. After twenty-four hours, the cells were washed once with dPBS containing Ca^2+ and Mg^2+ to remove dead cells and the cells were allowed to grow for an additional twenty-four hours. For three-hour duration treatments (i.e., VE-cadherin), cells were washed twice with dPBS containing Ca^2+ and Mg^2+ and serum starved in EBM-2 for ninety minutes. The media was then removed and the cells were treated for three hours with 100 μl of EBM-2 media containing 200 ng/ml Ang2 or PBS and varying concentrations of AXT107 or DMSO. For fifteen minute-treated samples (i.e., phospho-Tie2), the cells were serum starved in EBM-2 media for 165 minutes, incubated for ninety minutes with varying concentrations of AXT107 or DMSO in EBM-2, and finally stimulated for fifteen minutes with 200 ng/ml Ang2 or PBS supplemented with peptide to retain the same concentrations. These times were chosen so that both treatment procedures would be completed at the same time. […]

A further assay concerns Tie2. The assay can be described thus: Retinopathy of prematurity (ROP) mouse model, Tie2 activation. Particulars: no data given. The format is in vivo. The text has this: To investigate the effects of AXT107 on Tie2 activation in vivo, retinopathy of prematurity (ROP) mouse model was used. In this system, P7 pups are placed in 75% 02 for five days, resulting in a loss of retinal capillary density from hyperoxia and a rapid induction of neovascularization upon the pup's return to normoxic conditions. […] Increased levels of Ang2 in the vitreous contribute to vessel leakage and macular edema in various retinopathies.

The next assay has as its target integrin αvβ3 (Homo sapiens, UniProt P05106+P06756). Particulars: Lee et al., Sci Rep. 2014; cited from earlier work.
The subject of a further assay is MEC monolayers. Description: FITC Transwell permeability assay. The format is cell-based, human. The method, then:
The integrity of these junctions is also important for the regulation of monolayer permeability by controlling the size of intercellular openings. The effect of the AXT107 on EC permeability was further investigated by the transendothelial diffusion of FITC-labeled dextran across MEC monolayers seeded onto permeable Transwell® substrates.
Transwell, twenty-four-well inserts (Corning) were coated with 7.5 μg/cm^2 FN1 for two hours at 37° C., aspirated, and then dried for thirty minutes at room temperature. Wells were then seeded with 7.5×10^4 MECs in 100 μl of EBM-2 media (without phenol red) and allowed to settle for thirty minutes at room temperature. 1 ml of EGM-2 media was then added to the bottom chamber and an additional 200 μl to the top chamber. The plate was incubated for twenty-four hours at 37° C. after which the media was aspirated and an additional 7.5×10^4 MECs were plated in each well as described above. After forty-eight hours at 37° C., the media was aspirated from both chambers and the cells were washed twice in dPBS containing Ca^2+ and Mg^2+, once with EBM-2 media (without phenol red) and serum starved in EBM-2 media applied to both chambers for two hours at 37° C. After this incubation, 100 μM AXT107 or an equivalent amount of DMSO vehicle was added and incubated for an additional ninety minutes. In the top chamber, the cells were then treated with 200 ng/ml Ang2, 100 ng/ml VEGFA, both, or PBS control and in the bottom chamber, the cells were then treated with 25 μg/ml FITC-Dextran (40 kDa MW). AXT107 was also added in both chambers to maintain a concentration of 100 μM. After three hours, 10 μl was removed from the top chamber of each well and mixed with 90 μl of water in a clear bottom, 96-well plate. Fluorescence values for each sample were calculated using a Perkin Elmer plate reader.

Sequence of integrin αvβ3 (P06756 31-1048): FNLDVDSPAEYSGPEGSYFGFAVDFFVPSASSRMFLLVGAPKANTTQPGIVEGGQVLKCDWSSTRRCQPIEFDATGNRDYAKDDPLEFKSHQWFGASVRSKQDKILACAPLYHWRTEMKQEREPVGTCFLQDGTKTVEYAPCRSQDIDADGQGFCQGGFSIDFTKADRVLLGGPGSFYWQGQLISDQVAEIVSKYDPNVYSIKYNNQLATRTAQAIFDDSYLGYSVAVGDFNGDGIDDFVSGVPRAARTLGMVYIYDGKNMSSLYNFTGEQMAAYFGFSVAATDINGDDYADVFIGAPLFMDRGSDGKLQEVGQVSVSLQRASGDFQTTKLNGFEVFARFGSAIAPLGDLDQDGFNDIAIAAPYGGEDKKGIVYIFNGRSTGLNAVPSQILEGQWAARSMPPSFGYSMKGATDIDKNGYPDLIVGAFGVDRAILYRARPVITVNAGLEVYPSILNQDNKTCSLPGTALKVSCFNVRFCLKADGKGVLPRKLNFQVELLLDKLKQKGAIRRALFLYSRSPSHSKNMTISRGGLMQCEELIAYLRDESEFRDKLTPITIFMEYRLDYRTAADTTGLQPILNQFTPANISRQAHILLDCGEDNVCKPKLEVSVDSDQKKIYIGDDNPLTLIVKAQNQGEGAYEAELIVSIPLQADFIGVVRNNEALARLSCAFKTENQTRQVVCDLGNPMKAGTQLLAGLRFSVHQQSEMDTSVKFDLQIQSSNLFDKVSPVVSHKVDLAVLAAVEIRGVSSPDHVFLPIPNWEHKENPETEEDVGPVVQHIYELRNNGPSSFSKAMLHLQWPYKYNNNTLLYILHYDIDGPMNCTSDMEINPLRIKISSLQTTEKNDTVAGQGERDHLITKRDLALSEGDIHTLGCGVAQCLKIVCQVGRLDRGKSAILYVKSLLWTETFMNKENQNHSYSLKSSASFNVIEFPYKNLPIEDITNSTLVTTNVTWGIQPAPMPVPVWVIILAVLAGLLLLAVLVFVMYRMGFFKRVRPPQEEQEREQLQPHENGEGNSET
Sequence of integrin αvβ3 (P05106 27-788): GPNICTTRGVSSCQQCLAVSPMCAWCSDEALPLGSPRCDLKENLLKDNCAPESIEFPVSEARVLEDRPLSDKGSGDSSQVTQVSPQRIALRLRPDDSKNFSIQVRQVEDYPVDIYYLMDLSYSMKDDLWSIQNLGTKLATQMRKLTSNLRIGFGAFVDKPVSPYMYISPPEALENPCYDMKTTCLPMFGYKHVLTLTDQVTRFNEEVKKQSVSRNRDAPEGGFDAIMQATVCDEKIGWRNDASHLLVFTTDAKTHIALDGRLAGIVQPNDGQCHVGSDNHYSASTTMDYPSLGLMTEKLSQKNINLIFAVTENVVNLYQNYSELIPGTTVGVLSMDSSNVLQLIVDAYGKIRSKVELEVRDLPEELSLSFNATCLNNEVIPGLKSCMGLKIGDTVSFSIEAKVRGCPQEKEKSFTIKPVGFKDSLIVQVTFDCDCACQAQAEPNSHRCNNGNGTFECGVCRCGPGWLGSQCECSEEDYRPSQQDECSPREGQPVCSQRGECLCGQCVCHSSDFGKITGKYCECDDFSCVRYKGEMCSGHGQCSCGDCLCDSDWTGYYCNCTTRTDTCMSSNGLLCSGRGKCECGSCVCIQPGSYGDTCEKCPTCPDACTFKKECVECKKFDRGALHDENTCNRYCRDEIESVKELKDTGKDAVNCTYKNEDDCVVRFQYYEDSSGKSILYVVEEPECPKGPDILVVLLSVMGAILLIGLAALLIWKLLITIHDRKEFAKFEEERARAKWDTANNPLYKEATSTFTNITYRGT

On to LRRFSTAPFAFIDINDVINF [AXT107], for which the “phospho-Tie2 fluorescence intensity and distribution” value with phospho-Tie2 (Y992) was “increased overall fluorescence intensity and redistributed phospho-Tie2 along cell-cell junctions and into large clusters”. Moreover, in the assay with Tie2, the “activation of Tie2 by Ang2 in vivo” value was “potentiates the activation of Tie2 by Ang2”. Moreover, the “binding to integrin αvβ3” value with integrin αvβ3 was “binds tightly”. Besides, the “FITC-dextran diffusion into the top chamber” value is on record as “significant decrease” in the assay with MEC monolayers (Ang2 alone added to monolayers pre-incubated with 100 μM AXT107, vs growth factor alone) and “significant decrease” in the assay on MEC monolayers (Ang2 in combination with VEGF, monolayers pre-incubated with 100 μM AXT107, vs growth factors alone). In addition, the FITC-dextran diffusion result with MEC monolayers (VEGF in presence vs absence of peptide) is listed as “similar, but non-significant trend”. For the same sequence, in the assay on MEC monolayers (each agent alone), the “FITC-dextran diffusion across the monolayer, single treatment” value is “influenced FITC-dextran diffusion across the monolayer”.
